Test system: pdr5 ypt1^ts cells
Assay: microbe, parasite or virus in culture
Format: cell-based, yeast
Conditions: 37° C.; for minimal effective concentration: Saccharomyces cerevisiae, lowest concentration tested giving growth above the 0 μM background, read-out: ypt1-ts MRC (minimal rescue concentration); for minimal effective concentration / optical density, ypt1-ts, 0.39 / optical density, ypt1-ts, 0.78 / optical density, ypt1-ts, 1.56 / optical density, ypt1-ts, 3.13 / optical density, ypt1-ts, 6.25 / optical density, ypt1-ts, 12.5 / optical density, ypt1-ts, 25: Table 2; for optical density, ypt1-ts, 0.39: 0.39 μM compound; for optical density, ypt1-ts, 0.39 / optical density, ypt1-ts, 0.78 / optical density, ypt1-ts, 1.56 / optical density, ypt1-ts, 3.13 / optical density, ypt1-ts, 6.25 / optical density, ypt1-ts, 12.5 / optical density, ypt1-ts, 25: background (0 μM) 0.058; for optical density, ypt1-ts, 0.78: 0.78 μM compound; for optical density, ypt1-ts, 1.56: 1.56 μM compound; for optical density, ypt1-ts, 3.13: 3.13 μM compound; for optical density, ypt1-ts, 6.25: 6.25 μM compound; for optical density, ypt1-ts, 12.5: 12.5 μM compound; for optical density, ypt1-ts, 25: 25 μM compound; for optical density, 3.13 uM / optical density, 12.5 uM / optical density, 50 uM: Table 3, background (0 uM) 0.077; for optical density, 3.13 uM: 3.13 uM compound; for optical density, 12.5 uM: 12.5 uM compound; for optical density, 50 uM: 50 uM compound
Description: The activity of the compounds as modulators of protein trafficking may be measured in the assays described herein that evaluate the ability of a compound to rescue an impairment in protein trafficking. For example, the yeast mutant cell line ypt1^ts can be used to identify compounds that rescue cells from the lethal phenotype of a mutant YPT1 allele (see, e.g., Examples and Schmitt et al. (1988) Cell 53:635-47). The activity may be measured, for example, in a whole yeast cell assay using 384-well screening protocol and an optical density measurement.
The yeast mutant cell line ypt1^ts suppresses, in a temperature dependent fashion, the dominant-lethal phenotype of a mutant YPT1 allele (Schmitt et al. (1988) Cell 53:635-47). ypt1^ts cells grow normally at temperatures up to 30° C., but are growth arrested at 37° C. (Id.).
A library of compounds (“The Spectrum Collection”) obtained from Microsource Discovery Systems, Inc. (Gaylordsville, Conn.) was screened to assess the ability of individual compounds to restore growth of ypt1^ts cells. Screening was carried out using ypt1^ts cells containing a mutation in the pdr5 gene (resulting in inactivation of a membrane efflux pump). The effect of the compounds was measured in pdr5 ypt1^ts cells cultured at 37° C.

Compound: CC(=O)c1cc(CC=C(C)C)c(O)c(CC=C(C)C)c1
- minimal effective concentration: 25 µM
- optical density, ypt1-ts, 0.39: 0.085
- optical density, ypt1-ts, 0.78: 0.077
- optical density, ypt1-ts, 1.56: 0.082
- optical density, ypt1-ts, 3.13: 0.108
- optical density, ypt1-ts, 6.25: 0.096
- optical density, ypt1-ts, 12.5: 0.112
- optical density, ypt1-ts, 25: 0.195

Compound: COc1ccc2c(c1)OCC(Cc1ccc(OC)c(O)c1)C2=O (centres unmarked)
- minimal effective concentration: 12.5 µM
- optical density, ypt1-ts, 0.39: 0.099
- optical density, ypt1-ts, 0.78: 0.068
- optical density, ypt1-ts, 1.56: 0.085
- optical density, ypt1-ts, 3.13: 0.101
- optical density, ypt1-ts, 6.25: 0.125
- optical density, ypt1-ts, 12.5: 0.319
- optical density, ypt1-ts, 25: 0.62

Compound: O=C(/C=C(\O)c1ccccc1)c1ccccc1O [2',beta- DIHYDROXYCHALCONE]
- minimal effective concentration: 12.5 µM
- optical density, ypt1-ts, 0.39: 0.083
- optical density, ypt1-ts, 0.78: 0.072
- optical density, ypt1-ts, 1.56: 0.076
- optical density, ypt1-ts, 3.13: 0.096
- optical density, ypt1-ts, 6.25: 0.124
- optical density, ypt1-ts, 12.5: 0.31
- optical density, ypt1-ts, 25: 0.551

Compound: CCOc1ccc(C(=O)c2ccc(O)c(O)c2O)cc1 [2,3,4-TRIHYDROXY-4'- ETHOX[…]]
- minimal effective concentration: 12.5 µM
- optical density, ypt1-ts, 0.39: 0.114
- optical density, ypt1-ts, 0.78: 0.074
- optical density, ypt1-ts, 1.56: 0.081
- optical density, ypt1-ts, 3.13: 0.103
- optical density, ypt1-ts, 6.25: 0.1
- optical density, ypt1-ts, 12.5: 0.169
- optical density, ypt1-ts, 25: 0.365

Compound: COC(=O)CCCOc1ccc(Cl)cc1Cl [2,4-DICHLORO- PHENOXY- BUTYRIC ACID, METHYL ESTER]
- optical density, 3.13 uM: 0.159
- optical density, 12.5 uM: 0.255
- optical density, 50 uM: 0.221

Compound: CCOC(=O)C1(O)Oc2cc(OC)cc(OC)c2C(=O)C1c1ccccc1 (centres unmarked) [2-ETHOXY- CARBONYL-2- HYDROXY-5,7- DIMETHOXY- ISOFLAVANONE]
- optical density, 3.13 uM: 0.091
- optical density, 12.5 uM: 0.134
- optical density, 50 uM: 0.468

Compound: O=c1c2ccccc2oc2ccc(O)cc12 [2-HYDROXY- XANTHONE]
- optical density, 3.13 uM: 0.107
- optical density, 12.5 uM: 0.257
- optical density, 50 uM: 0.571

Compound: COc1cccc(/C=C/C(=O)O)c1C(C)C [2-ISOPROPYL-3- METHOXYCINNAMIC ACID]
- minimal effective concentration: 12.5 µM
- optical density, ypt1-ts, 0.39: 0.097
- optical density, ypt1-ts, 0.78: 0.079
- optical density, ypt1-ts, 1.56: 0.086
- optical density, ypt1-ts, 3.13: 0.111
- optical density, ypt1-ts, 6.25: 0.123
- optical density, ypt1-ts, 12.5: 0.184
- optical density, ypt1-ts, 25: 0.397

Compound: COc1ccc2oc3ccccc3c(=O)c2c1 [2-METHOXYXANTHONE]
- optical density, ypt1-ts, 0.39: 0.093
- optical density, ypt1-ts, 0.78: 0.069
- optical density, ypt1-ts, 1.56: 0.083
- optical density, ypt1-ts, 3.13: 0.094
- optical density, ypt1-ts, 6.25: 0.108
- optical density, ypt1-ts, 12.5: 0.128
- optical density, ypt1-ts, 25: 0.221

Compound: Cc1[nH]c2ccccc2c1CN(C)C [2-METHYL GRAMINE]
- optical density, 3.13 uM: 0.084
- optical density, 12.5 uM: 0.106
- optical density, 50 uM: 0.295

Compound: CCCc1occc(=O)c1/C=C/O [2-PROPYL-3- HYDRO[…]-4-ONE]
- minimal effective concentration: 25 µM
- optical density, ypt1-ts, 0.39: 0.091
- optical density, ypt1-ts, 0.78: 0.079
- optical density, ypt1-ts, 1.56: 0.083
- optical density, ypt1-ts, 3.13: 0.092
- optical density, ypt1-ts, 6.25: 0.088
- optical density, ypt1-ts, 12.5: 0.104
- optical density, ypt1-ts, 25: 0.126

Compound: c1ccc2c(Cc3c[nH]c4ccccc34)c[nH]c2c1 [3,3'- DIINDOLYLMETHANE]
- minimal effective concentration: 3.13 µM
- optical density, ypt1-ts, 0.39: 0.205
- optical density, ypt1-ts, 0.78: 0.097
- optical density, ypt1-ts, 1.56: 0.118
- optical density, ypt1-ts, 3.13: 0.164
- optical density, ypt1-ts, 6.25: 0.154
- optical density, ypt1-ts, 12.5: 0.263
- optical density, ypt1-ts, 25: 0.035

Compound: CCOc1cccc(C(=O)c2ccc(O)c(O)c2O)c1 [3,4-DIDESMETHYL-5- DESHYDROXY-3'- ETHOXYSCLEROIN]
- minimal effective concentration: 6.25 µM
- optical density, ypt1-ts, 0.39: 0.094
- optical density, ypt1-ts, 0.78: 0.075
- optical density, ypt1-ts, 1.56: 0.091
- optical density, ypt1-ts, 3.13: 0.108
- optical density, ypt1-ts, 6.25: 0.143
- optical density, ypt1-ts, 12.5: 0.185
- optical density, ypt1-ts, 25: 0.396

Compound: O=c1oc2ccccc2cc1O [3- HYDROXY- COUMARIN]
- optical density, 3.13 uM: 0.083
- optical density, 12.5 uM: 0.109
- optical density, 50 uM: 0.299

Compound: COC(=O)C[C@H]1C(C)(C)[C@@H](O)[C@@H]2CC3=C4C=C(OC)O[C@@H](c5ccoc5)[C@]4(C)CCC3[C@]1(C)C2=O (stereo partly drawn) [3-DEOXO-3beta-HYDRO[…] 16-ENOL ETHER]
- minimal effective concentration: 3.13 µM
- optical density, ypt1-ts, 0.39: 0.102
- optical density, ypt1-ts, 0.78: 0.077
- optical density, ypt1-ts, 1.56: 0.091
- optical density, ypt1-ts, 3.13: 0.141
- optical density, ypt1-ts, 6.25: 0.219
- optical density, ypt1-ts, 12.5: 0.583
- optical density, ypt1-ts, 25: 0.625

Compound: C=C1[C@H]2CC[C@@]3(C)[C@H](c4ccoc4)OC(=O)C[C@]13O[C@H]1C[C@H](O)C(C)(C)[C@H](CC(=O)OC)[C@]12C [3-DEOXY-3beta- HYDROXY- […] METHYL ESTER]
- optical density, 3.13 uM: 0.384
- optical density, 12.5 uM: 0.641
- optical density, 50 uM: 0.621

Compound: COc1ccc(C(=O)c2ccccc2)c(O)c1O [3-DESMETHYL- 5-DES- HYDROXY- SCLEROIN]
- optical density, 3.13 uM: 0.11
- optical density, 12.5 uM: 0.149
- optical density, 50 uM: 0.556

Compound: C[C@]12CC[C@@H](O)C[C@H]1CCc1ccccc12 [3alpha- HYDROXY-4,4- BISNOR- 8,11,13- PODO- […]]
- optical density, 3.13 uM: 0.074
- optical density, 12.5 uM: 0.104
- optical density, 50 uM: 0.408

Compound: CC(=O)O[C@@H]1CC2C(C)(C)[C@H](O)CC[C@]2(C)C2CC[C@@]3(C)[C@H](c4ccoc4)OC(=O)C4OC43[C@@]21C (stereo partly drawn) [3alpha- HYDROXY- DEOXO- DIHYDRO- GEDUNIN]
- optical density, 3.13 uM: 0.137
- optical density, 12.5 uM: 0.25
- optical density, 50 uM: 0.146

Compound: C=C1[C@H]2CC[C@@]3(C)[C@H](c4ccoc4)OC(=O)C[C@]13O[C@H]1C[C@@H](O)C(C)(C)[C@H](CC(=O)OC)[C@]12C [3alpha-HYDROXY-3- DEOXY[…] METHYL ESTER2]
- minimal effective concentration: 3.13 µM
- optical density, ypt1-ts, 0.39: 0.169
- optical density, ypt1-ts, 0.78: 0.078
- optical density, ypt1-ts, 1.56: 0.093
- optical density, ypt1-ts, 3.13: 0.144
- optical density, ypt1-ts, 6.25: 0.381
- optical density, ypt1-ts, 12.5: 0.566
- optical density, ypt1-ts, 25: 0.611

Compound: C=C1C2CC[C@@]3(C)[C@H](c4ccoc4)OC(=O)C[C@]13O[C@H]1C[C@H](OC(C)=O)C(C)(C)[C@H](CC(=O)OC)[C@@]21C [3beta- ACETO[…] ACID, METHYL ESTER]
- minimal effective concentration: 1.56 µM
- optical density, ypt1-ts, 0.39: 0.129
- optical density, ypt1-ts, 0.78: 0.096
- optical density, ypt1-ts, 1.56: 0.133
- optical density, ypt1-ts, 3.13: 0.374
- optical density, ypt1-ts, 6.25: 0.538
- optical density, ypt1-ts, 12.5: 0.571
- optical density, ypt1-ts, 25: 0.553
